Results taken from patent publication US10238641B2, “Materials and methods for diagnosis, prevention and/or treatment of stress disorders and conditions associated with A-beta peptide aggregation” (The United States of America as represented by the …, priority 2008, dated 2019).

System: anxiety in mice
Experiment: Elevated plus maze, basal anxiety
Format: in vivo
Details: cotinine 1 and 5 mg/kg
Excerpt: Mice were placed in an EPM (Stoelting, Wood Dale, Ill., USA) made of grey plexiglas, consisting of two opposite-facing open arms, two opposite-facing closed arms, and a central area. Mice were placed at the end of one of the open arms facing toward the central area before a 5-minute test session was begun. We recorded the number of entries into the open and closed arms and assessed the exploratory behavior of the mice. We utilized a video tracking software that measures movement in each section of the maze in order to determine the time the mice were mobile exploring the different arms. Statistical significance was evaluated using One-way ANOVA with Tukey posttest. ns, not significant.
The elevated plus maze (EPM) is considered the first choice test for screening anxiolytic effects of drugs. This test is based on the fact that higher anxiety levels will decrease the drive to explore a new environment as a way to avoid a potentially dangerous areas (open arms), and will, therefore, cause the mice to stay immobile in the closed arms for a longer period of time.

CN1C(=O)CC[C@H]1c1cccnc1 [cotinine]
did not change: time spent on open arms (EPM, resting conditions) (p=0.4471) | time spent on closed arms (EPM, resting conditions) (p=0.6186) | time spent exploring the maze (EPM, resting conditions) (p=0.8831)
